Biological target: Apoptosis regulator Bcl-2 (Homo sapiens, UniProt P10415)
Assay: Fluorescence Polarization Assay
Details: pH 7.4; 23 °C
Experimental: FPAs were performed using various concentrations of GST-Bcl-2 family proteins, incubated with FITC-conjugated peptide substrates in the presence of inhibitor compound. […] IC50 was determined by fitting the experimental data to a sigmoidal dose-response nonlinear regression model (SigmaPlot 10.0.1, Systat Software, Inc., San Jose, CA). Data reported are the mean of three independent experiments.

Sequence of Apoptosis regulator Bcl-2 (P10415 whole entry): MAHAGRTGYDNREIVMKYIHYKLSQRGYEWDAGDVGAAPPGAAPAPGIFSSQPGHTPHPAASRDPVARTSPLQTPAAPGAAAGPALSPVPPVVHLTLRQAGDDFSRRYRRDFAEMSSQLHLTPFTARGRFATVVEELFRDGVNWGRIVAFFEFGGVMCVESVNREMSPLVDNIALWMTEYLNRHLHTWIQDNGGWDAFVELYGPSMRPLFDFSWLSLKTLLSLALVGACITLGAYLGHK

Molecule `Cc1cc2c(C(C)C)c(O)c(O)cc2c(O)c1-c1c(C)cc2c(C(C)C)c(O)c(O)cc2c1O` [Apogossypol] has an IC50 of 4.3 µM.
